Holding throughout (experiment): DTP human tumour cell line panel, 48 h
Assay [1] relates to SF-539 CNS.
In assay [2] the test system is HOP-92 NSCLC.
Assay [3] concerns SF-268 CNS.
Assay [4] has as its system HL-60(TB) leukemia.
The test system of assay [5] is K-562 leukemia.
Assay [6] deals with TK-10 renal.
In assay [7] the test system is LOX IMVI melanoma.
The test system of assay [8] is OVCAR-3 ovarian.
For assay [9], the system named is UACC-257 melanoma.

For orientation: GI50 means the concentration that inhibits growth by half. For orientation: TGI means the concentration giving total growth inhibition. Higher therefore signals lower sensitivity of the cells.

“And” between values parts separate entries of the source, which are not always exact repeats. Equal entries are not always repeated.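 Five compound concentrations were applied to cells in 96-well plates for 48 hours; endpoints were derived by simple linear interpolation of the resulting dose-response curve. Abbreviation: GI50, concentration required for 50% inhibition of growth. TGI is the concentration that stops growth completely.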

`CCCCCCCCOC(=O)c1cc(O)c(O)c(O)c1`: the GI50 is 2.52 µM in [1]; 0.686 µM in assay [2]; 1.49 µM in assay [3]; 0.486 µM in assay [4]; 2.05 µM in assay [5]; 3.77 µM in [6]. The GI50 in [7] is 1.33 µM; in assay [8], 2.03 µM; in assay [9] it was 6.4 µM. The TGI was 18.2 µM in [1]; 15.6 µM in [2]; 12.1 µM in [3]; 5.02 µM in assay [4]; above 38.8 µM in assay [5]; above 62.6 µM in assay [6]. The TGI was 10.6 µM in assay [7], 14.9 µM in assay [8] and 45.4 µM in [9].
`Nc1nc(N)c2ncn(Cc3c(Cl)cccc3Cl)c2n1`: the TGI in [1], in assay [2], in assay [3], in assay [6], in assay [7] and in assay [8] was above 100 µM each time. The same compound had a TGI in assay [9] above 100 µM.
Take `Cc1cc2cc(Oc3ccnc(Nc4cccc(CS(=O)(=O)NCCN(C)C)c4)n3)ccc2[nH]1`: the GI50 is 3.05 µM in assay [1]; 1.78 µM in [2]; 3.93 µM in assay [3]; 2.24 µM in assay [4]; 12.5 µM in [6]; 3.51 µM in assay [7]. The GI50 in [8] was 4.3 µM; in assay [9] it was 2.33 µM. The concentration for total growth inhibition (TGI) in assay [1] turned out to be 13.3 µM; in [2], 5.68 µM; in [3] it was 17.3 µM; in assay [4], 6.17 µM; in assay [6], 25.3 µM; in [7], 15 µM. Also, the TGI stood at 15.8 µM in assay [8] and 4.79 µM in assay [9].
On to `N#C/C(=C/c1cccs1)c1cccs1`, for which the GI50 is above 100 µM in [1]; 27.8 µM in [2]; above 100 µM in assay [3]; above 100 µM in assay [4]; above 100 µM in assay [5]; above 100 µM in [6]. Also, the GI50 in [7], in assay [8] and in assay [9] was above 100 µM each time. The TGI in assay [1], in [2], in [3], in [4], in assay [5] and in [6] was above 100 µM each time. For the same compound, the TGI in assay [7], in assay [8] and in [9] was above 100 µM in each case.
As for `CC(C)(C)OC(=O)N(CCCn1c2c(c3ccccc3c1=O)C(=O)c1ccccc1-2)CCN(CCCn1c2c(c3ccccc3c1=O)C(=O)c1ccccc1-2)C(=O)OC(C)(C)C`, the GI50 in assay [1] is above 50 µM; in [2], 11.1 µM; in assay [3], 23.8 µM; in assay [4], above 50 µM; in [5], 21.3 µM; in assay [6] it was above 50 µM. The figures for the GI50 in [7], in assay [8] and in assay [9] were 25.2 µM, 13.2 µM and above 50 µM, respectively. Further, the TGI in assay [1], in assay [2], in [3], in assay [4], in assay [5] and in assay [6] was above 50 µM in each case. For the same compound, the TGI in [7], in assay [8] and in assay [9] was above 50 µM each time.
Turning to `CCN(CC)CCNc1ccc(CO)c2sc3ccccc3c(=O)c12`, the GI50 is 4.53 µM and 7.78 µM and 16.7 µM in [1]; 1.91 µM and 5.36 µM in assay [2]; 3.62 µM in assay [3]; 8.47 µM [middle of 4 runs] in assay [4]; 2.96 µM in [6]; 1.7 µM and 3.79 µM in assay [9]. The TGI was 24.1 µM [middle of 4 runs] in assay [1]; 15 µM and 14.9 µM and 17.9 µM in assay [2]; 16.3 µM and 21.2 µM and 20.9 µM in assay [3]; 24.5 µM [middle of 4 runs] in assay [4]; 11.4 µM and 24.9 µM in [6]; 20 µM [middle of 4 runs] in assay [8].
`CN1CCN(c2ccc3nc(-c4ccc5nc(-c6ccc(C(F)(F)F)cc6)[nH]c5c4)[nH]c3c2)CC1`: the GI50 was 1.62 µM in assay [1]; 2.49 µM in assay [2]; 1.97 µM in [3]; 1.47 µM in assay [4]; 1.82 µM in assay [7]; 1.58 µM in assay [8]. Moreover, in assay [9], the GI50 was 1.75 µM. Also, the TGI was 3.09 µM in assay [1]; 14.7 µM in assay [2]; 3.93 µM in assay [3]; 3.45 µM in [4]; 3.36 µM in [7]; 3.1 µM in assay [8]. For the same compound, in [9], the TGI was 3.42 µM.
As for `CO/N=C(\COc1ccc2c(=O)cc(-c3ccccc3)oc2c1)c1ccc(OC)cc1`, the GI50 is above 100 µM in assay [1]; 20.2 µM in assay [2]; above 100 µM in assay [4]; above 100 µM in assay [5]; above 100 µM in assay [6]; above 100 µM in [7]. In addition, the GI50 in [8] is 23.2 µM; in assay [9], above 100 µM. For the same compound, the TGI in assay [1] was above 100 µM; in assay [2], 96.4 µM; in [4], above 100 µM; in assay [5], above 100 µM; in assay [6] it was above 100 µM; in assay [7], above 100 µM. Further, the TGI in assay [8] was 44.8 µM; in assay [9] it was above 100 µM.
On to `COc1ccc(OC)c(-c2cn3nc(-c4c[nH]c5ccc(Br)cc45)sc3n2)c1`, for which the GI50 is 1.78 µM in [1]; 2.01 µM in [2]; 2.7 µM in [3]; 9.21 µM in [4]; 3.18 µM in [6]; 1.96 µM in assay [8]. In addition, the GI50 in assay [9] was 7.45 µM. The TGI in assay [1] is 3.41 µM; in assay [2], 5.68 µM; in assay [3], 7.6 µM; in assay [4] it was above 100 µM; in assay [6] it was 6.54 µM; in assay [8] it was 4.32 µM. In assay [9], this compound had a TGI of 30.7 µM.

The values are drawn from PubChem BioAssay (NCI).
